What was measured:
[1] = biological target: 5-hydroxytryptamine receptor 1D (Homo sapiens, UniProt P28221)
[2] = biological target: 5-hydroxytryptamine receptor 1B (Homo sapiens, UniProt P28222)
Sequence of 5-hydroxytryptamine receptor 1B (P28222 whole entry): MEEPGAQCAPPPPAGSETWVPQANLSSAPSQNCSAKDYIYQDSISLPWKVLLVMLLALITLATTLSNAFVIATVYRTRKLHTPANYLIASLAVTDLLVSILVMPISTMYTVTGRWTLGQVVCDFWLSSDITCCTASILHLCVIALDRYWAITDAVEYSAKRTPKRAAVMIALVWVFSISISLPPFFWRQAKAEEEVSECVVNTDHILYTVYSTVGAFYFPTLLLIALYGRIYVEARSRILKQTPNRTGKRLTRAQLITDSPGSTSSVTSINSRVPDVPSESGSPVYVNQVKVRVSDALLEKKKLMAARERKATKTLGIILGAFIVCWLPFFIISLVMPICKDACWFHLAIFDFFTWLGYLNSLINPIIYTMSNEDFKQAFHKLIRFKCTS

Sequence of 5-hydroxytryptamine receptor 1D (P28221 whole entry): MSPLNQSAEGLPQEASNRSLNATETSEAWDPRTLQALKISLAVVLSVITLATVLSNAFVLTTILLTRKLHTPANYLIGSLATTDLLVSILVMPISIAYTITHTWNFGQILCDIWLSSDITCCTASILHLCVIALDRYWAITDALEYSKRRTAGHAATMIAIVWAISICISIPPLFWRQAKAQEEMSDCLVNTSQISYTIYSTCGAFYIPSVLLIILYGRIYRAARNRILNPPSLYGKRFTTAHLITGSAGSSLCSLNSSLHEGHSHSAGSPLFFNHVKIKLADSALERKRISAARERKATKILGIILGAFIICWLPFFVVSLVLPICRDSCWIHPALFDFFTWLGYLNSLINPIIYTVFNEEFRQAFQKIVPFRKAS

| Compound | Ki [1] [µM] | Ki [2] [µM] |
| --- | --- | --- |
| c1ccc2c(N3CCNCC3)cccc2c1 | 0.012 |  |
| Cc1[nH]c2ccc(O)cc2c1CCN | 0.86 | 0.915 |
| CN1C[C@H](CO)C=C2c3cccc4[nH]cc(c34)C[C@H]21 | 0.00119 | 0.00063 |
| CC[C@@H](CO)NC(=O)[C@@H]1C=C2c3cccc4c3c(cn4C)C[C@H]2N(C)C1 | 0.025 | 0.0036 |
| c1ccc2nc(N3CCNCC3)ccc2c1 [2-Piperazin-1-yl-quinoline (Quipazine)] | 1 | 1 |
| O=C(CCCN1CCC2(CC1)C(=O)NCN2c1ccccc1)c1ccc(F)cc1 [8-[4-(4-fluorophenyl)-4-oxidanylidene-butyl]-1-phenyl-1,3,8-triazaspiro[4.5]decan-4-one] | > 10 | 0.995 |
| CC(C)NCC(O)COc1cccc2[nH]ccc12 (centres undefined) [LB-46] | 4.9 | 4.1 |
| CCCN(CCC)CCc1c[nH]c2ccc(C(N)=O)cc12 [NN-DIPROP-5-CT] | 0.042 | 0.013 |
| COc1cc(N)c(Cl)cc1C(=O)NC1CN2CCC1CC2 (centres undefined) [ZACOPRIDE,R] | > 10 | > 10 |
| Clc1cccc(N2CCNCC2)c1 [mCPP] | 0.361 | 0.216 |

Source: BindingDB's records for doi:10.1073/pnas.89.8.3630 (Synaptic Pharmaceutical, 1992)
